Measurements reported in PubChem BioAssay (NCI).
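Briefly, cells in 96-well plates were exposed to five compound concentrations for 48 h, and endpoints were estimated by linear interpolation. Abbreviation: GI50, concentration required for 50% inhibition of growth. TGI marks complete inhibition of growth.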 The source made the active and inactive calls. No stated cut-off is given here; in the data, active means GI50 below about 0.43 µM; inactive means the rest.

Assays:
Assay in all cases: NCI tumour cell line growth inhibition, 48 h
HL-60(TB) leukemia = test system: HL-60(TB) leukemia
MOLT-4 leukemia = test system: MOLT-4 leukemia
NCI/ADR-RES ovarian = test system: NCI/ADR-RES ovarian
OVCAR-4 ovarian = test system: OVCAR-4 ovarian
OVCAR-5 ovarian = test system: OVCAR-5 ovarian
OVCAR-8 ovarian = test system: OVCAR-8 ovarian
SK-OV-3 ovarian = test system: SK-OV-3 ovarian
TK-10 renal = test system: TK-10 renal
U251 CNS = test system: U251 CNS

| SMILES | GI50 (HL-60(TB) leukemia) [µM] | TGI (HL-60(TB) leukemia) [µM] | GI50 (MOLT-4 leukemia) [µM] | TGI (MOLT-4 leukemia) [µM] | GI50 (NCI/ADR-RES ovarian) [µM] | TGI (NCI/ADR-RES ovarian) [µM] | GI50 (OVCAR-4 ovarian) [µM] | TGI (OVCAR-4 ovarian) [µM] | GI50 (OVCAR-5 ovarian) [µM] | TGI (OVCAR-5 ovarian) [µM] | GI50 (OVCAR-8 ovarian) [µM] | TGI (OVCAR-8 ovarian) [µM] | GI50 (SK-OV-3 ovarian) [µM] | TGI (SK-OV-3 ovarian) [µM] | GI50 (TK-10 renal) [µM] | TGI (TK-10 renal) [µM] | GI50 (U251 CNS) [µM] | TGI (U251 CNS) [µM] | outcome (OVCAR-4 ovarian) | outcome (SK-OV-3 ovarian) |
| --- | --- | --- | --- | --- | --- | --- | --- | --- | --- | --- | --- | --- | --- | --- | --- | --- | --- | --- | --- | --- |
| CCCCCCCCn1ccc2cc(NC(=O)Cn3cc(CN4CCCC4)nn3)ccc21 | 1.83 | 3.8 | 2.41 | 5.9 | 2.08 | 4.49 | 4.97 | 18.1 | 1.78 | 4 | 2 | 4.09 | 1.81 | 3.51 | 1.71 | 3.3 | 1.7 | 3.16 | – | – |
| CC/C=C\C[C@@H](O)C/C=C1/C(=O)C=C[C@H]1C/C=C\CCCC(=O)OC | 1.96 | 5.48 | 2.06 | 5.83 | 3.38 | 19.7 | 4.21 | 16.9 | 3.35 | 12.1 | 3.26 | 10.4 | 6.49 | 19 | 11.6 | 24 | 3.18 | 10.5 | – | – |
| CCCn1c(=S)sc2c1nc(C)n1c(Nc3ccccc3)nnc21 | 3.46 | > 100 | 3.02 | 48.3 | 3.53 | 41.9 | 3.46 | > 100 | 21 | > 100 | 4.92 | > 100 | 16.8 | 89.1 | 3.2 | 84 | 4.02 | > 100 | – | – |
| COc1ccc(C(=O)C#Cc2cnc(OC)nc2OC)cc1 | 22100 | – | 17900 | – | – | 79000 | – | 94.4 | 31100 | 3.01 | 32300 | 3.4 | – | 27.2 | 17700 | – | 58900 | 2.62 | inactive | inactive |
| O=C(O)c1nn(-c2ccccc2-c2n[nH]c(=O)[nH]c2=O)c(=O)[nH]c1=O | – | > 100 | – | > 100 | – | > 100 | – | > 100 | – | > 100 | – | > 100 | – | > 100 | – | > 100 | – | > 100 | – | – |
| CC1CN1C(=O)NCCCCCCNC(=O)N1CC1C (stereo unspecified) | – | > 100 | – | > 100 | – | > 100 | – | > 100 | – | > 100 | – | > 100 | – | > 100 | – | > 100 | – | > 100 | – | – |
